Source: patent US20030199449A1, “Combination of ablation and controlled drug delivery for the treatment of cancer” (priority 2002, published 2003)

Experiments:
[1] = In-vitro release of 5-FU from poly(CPP:SA) implants; assay type: physicochemical; settings: 37° C., 120 rpm
Method: The drug 5-fluorouracil was analyzed by HPLC using a Regis C-18 reverse phase column. The mobile phase was deionized water at a flow rate of 0.6 ml/min and the injection volume was10 μl. The detector was set to monitor 266 nm. Calibration standards for the method were prepared as follows: A mass of 13 mg of 5-FU was dissolved in deionized water in a 50 ml volumetric flask to make a 2.00 mM stock solution. Sequential dilutions of the stock solution give standard solutions of 1.00, 0.200, 0.0500, 0.0100 and 0.00100 mM, respectively. The standards for the metabolite 5-FUR were similarly prepared at the concentrations of 2.00, 1.00, 0.200, 0.0500, 0.0100 and 0.00100 mM, respectively. The HPLC peak area of 5-FU and 5-FUR varied linearly with concentrations in the standard test range of 0.001-2 mM.
To measure in-vitro drug release of 5-F U from the implants, solid samples were pre-weighed and placed in a sterile 50-ml conical tubes filled with 20 ml of either phosphate buffered saline (PBS) or fetal bovine serum (FBS). The tubes were placed on the Gyromax 929 shaker adjusted to 37° C. and 120 rpm. Periodically, 0.1 ml of the solutions was transferred into a vial and diluted 20 times with deionized water. Aliquots of 0.1 ml of fresh PBS or FBS was added to the conical tubes each time to maintain a constant volume. […]

[2] = in vivo; settings: RF ablated liver; for concentration at 24 h: male, Sprague Dawley, rat, in vivo, 5-FU concentration in liver tissue
Description: The medial lobe of each liver was exposed through a small midline incision.
For the ablation procedure, the livers were placed on a wire mesh grounding pad and a saline soaked sponge. Ablation was accomplished using a 200-W radiofrequency generator (model CTRF-A, Radionics, Burlington, Mass.) using a 19-gauge needle electrode (model PE-D(10)(2) Radionics , Burlington, Mass.). Ablation was initiated by inserting the needle electrode into a needle tract made with a 23-gauge needle in the center of the lobe. The electrode was inserted to a depth of approximately 8-mm. The hepatic tissue exposed to the radiofrequency current was raised to a temperature of 90° C. for 3 min. […] After the electrode was removed, a 5-FU rod was placed in the probe tract and a fat pad was sewn over the top.

[3] = tested on: VX-2 tumor; assay: 5-FU rods plus radio-frequency ablation in VX-2 tumors in the liver of rabbits, tumor volume; assay type: in vivo, New Zealand white rabbits
Method: (§1) Male New Zealand white rabbits (−3 kg) were used and were cared for in accordance with the Case Western Reserve University animal research center regulations. The rabbits were anesthetized using a combination of xylazine (5 mg/kg body weight BW) and ketamine (50 mg/kg BW), acepromazine (2 mg/kg), and atropine (0.2 mg/kg) given by i.m. injection. The abdomen was shaved and cleaned with povidone-iodine solution (Betadine) and 0.5 ml of Marcaine was administered into the skin at the incision site. A small midline incision was made and the medial lobe of the liver was exposed and exteriorized. The capsule of the medial lobe was punctured with a scalpel blade and a small piece of VX-2 tumor (1 mm^3), which was propagated in another rabbit and stored in liquid nitrogen for later use, was inserted into the liver parenchyma. A small piece of fat was sutured over the implant site. The abdominal muscles were closed with suture and the skin was closed with subcutaneous hidden sutures. During the recovery period, all animals received buprenophrine (Buprenex, 0.5 mg/kg, i.m.), soon after surgery and once again 24 hrs later for pain. If the animals were later perceived to be in pain, additional buprenophrine was given as needed. The rabbits also received a subcutaneous injection of 25 ml of 0.9% saline during recovery and 24 hrs later.
Fourteen days after tumor implantation, the rabbits were anesthetized again using the protocol given above. The medial lobe of the liver was exteriorized and examined for tumor growth. The size of the tumor was approximately 0.5-1.0 cm in diameter and extended into the liver parenchyma. Before radio frequency ablation, a grounding pad was placed under the exteriorized medial lobe of the liver. […]
Tumor volumes after 28 days of growth, calculated from the digital photographs as well as the integration of the CT slices though the tumors of each rabbit, are given in the table below: […]

[4] = Body weight change after RFA plus 5-FU rods in VX-2 tumor rabbits; assay type: in vivo, New Zealand white rabbits; settings: RFA plus 5-FU subgroup, last 14 days following RFA
Method: as §1, with “later. […]” for “later.”

[5] = tested on: neoplastic tissue; settings: reported; cited from earlier work
[6] = Local drug concentration distribution in normal (unablated) rat liver after implantation of 5-FU rod; settings: 24 h, insertion point vs periphery
[7] = ablation + three 5-FU rods at day 14, after 28 days of growth, N = 4

SMILES | time to release 75% of the 5-FU from implant ([1]; FBS) | time to release 75% of the 5-FU from implant ([1]; PBS) | concentration at 24 h ([2]; between 6 and 18 mm away from the ablation center) | concentration at 24 h ([2]; within 24 h, immediate vicinity of the ablation site (~6 mm radius)) | reduction in tumor size ([3]; ablation + local sustained release 5-FU vs ablation only) | Tumor Volumes, mean (1 SD), CT Scan [3, 7] | Tumor Volumes, mean (1 SD), Digital Photography [3, 7] | increase in body weight [4] | level in neoplastic tissue sufficient for a clinical effect [5] | spatial distribution in normal (unablated) liver [6] | spatial distribution in ablated liver ([2]; 5-FU rod in probe tract, 24 h and 48 h)
O=c1[nH]cc(F)c(=O)[nH]1 [5-FU, 5-fluorouracil] | 2 days | 9 days | ~12000 ng/g | ≤ 41000 ng/g | ~50% | 1.71 (0.56) cm^3 | 1.24 (0.55) cm^3 | 2% | 0.05 µg/g | essentially the same throughout the whole liver | 
O=c1[nH]c(=O)n([C@H]2C[C@H](O)[C@@H](CO)O2)cc1F [5-FUR, 5-floxuridine] |  |  |  |  |  |  |  |  |  |  | contains less 5-FUR than that further away from the ablation site
